Target: T1, β-secretase(BACE) (Homo sapiens, UniProt P56817)
T1 construct: purchased Panvera
Experiment: BACE FS1% Inhibition Assay
Format: biochemical
Conditions: FS1 substrate; for % Inhibition (FS) 0.3 μM / inhibition at 0.3 µM: 0.3 μM test compound; for % Inhibition (FS) 1 μM / inhibition at 1 µM: 1 μM test compound; for % Inhibition (FS) 3 μM / inhibition at 3 µM: 3 μM test compound; for inhibition at 0.3 µM: read-out: % Inhibition (FS) 0.3 μM; for inhibition at 1 µM: read-out: % Inhibition (FS) 1 μM; for inhibition at 3 µM: read-out: % Inhibition (FS) 3 μM
How it was run: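 Human BACE (4 μg/mL working solution) preincubated 20 min at room temperature with compound, then FS1 substrate (300 μg/mL working solution) added and incubated 1 h at room temperature. Percent inhibition calculated at each compound concentration against blank and vehicle controls.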

T1 sequence (P56817 46-501): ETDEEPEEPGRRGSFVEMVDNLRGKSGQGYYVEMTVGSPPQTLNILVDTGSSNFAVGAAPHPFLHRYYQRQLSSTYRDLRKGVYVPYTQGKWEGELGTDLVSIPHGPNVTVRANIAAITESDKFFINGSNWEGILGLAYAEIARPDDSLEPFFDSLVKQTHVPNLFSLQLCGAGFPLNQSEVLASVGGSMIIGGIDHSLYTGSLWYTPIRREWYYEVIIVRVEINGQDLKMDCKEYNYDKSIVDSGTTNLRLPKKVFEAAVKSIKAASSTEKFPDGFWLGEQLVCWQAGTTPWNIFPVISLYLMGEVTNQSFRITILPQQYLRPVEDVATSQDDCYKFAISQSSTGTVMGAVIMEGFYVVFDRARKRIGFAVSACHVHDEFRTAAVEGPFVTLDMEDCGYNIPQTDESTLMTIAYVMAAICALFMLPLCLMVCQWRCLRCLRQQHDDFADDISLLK

## COc1cccc(COc2ccc3c(c2)CN(Cc2cccc(C(=O)N(C)C4CCCCC4)c2)C(N)=N3)c1 [Compound 514]
  % Inhibition (FS) 0.3 μM: <30%
  % Inhibition (FS) 1 μM: <30%
  % Inhibition (FS) 3 μM: <30%

## CCCCCOc1ccc2c(c1)CN(Cc1cccc(C(=O)N(C)C3CCCCC3)c1)C(N)=N2 [Compound 516]
  % Inhibition (FS) 0.3 μM: <30%
  % Inhibition (FS) 1 μM: <30%
  % Inhibition (FS) 3 μM: <30%

## CC(C)CCOc1ccc2c(c1)CN(Cc1cccc(C(=O)N(C)C3CCCCC3)c1)C(N)=N2 [Compound 517, 3-[2-Amino-6-(3-methyl-butoxy)-4H-quinazolin-3-ylmethyl]-N-cyclohexyl-N-methyl-benzamide]
  inhibition at 0.3 µM: < 30%
  inhibition at 1 µM: < 30%
  inhibition at 3 µM: 40%

## CC(C)COc1ccc2c(c1)CN(Cc1cccc(C(=O)N(C)C3CCCCC3)c1)C(N)=N2 [Compound 518]
  % Inhibition (FS) 0.3 μM: <30%
  % Inhibition (FS) 1 μM: <30%
  % Inhibition (FS) 3 μM: <30%

## CC(C)Oc1ccc2c(c1)CN(Cc1cccc(C(=O)N(C)C3CCCCC3)c1)C(N)=N2 [Compound 519]
  % Inhibition (FS) 0.3 μM: <30%
  % Inhibition (FS) 1 μM: <30%
  % Inhibition (FS) 3 μM: <30%

## CN(C(=O)c1cccc(CN2Cc3cc(OC4CCCC4)ccc3N=C2N)c1)C1CCCCC1 [Compound 520]
  % Inhibition (FS) 0.3 μM: <30%
  % Inhibition (FS) 1 μM: <30%
  % Inhibition (FS) 3 μM: 33%

## CN(C(=O)c1cccc(CN2Cc3cc(OCC4CCCC4)ccc3N=C2N)c1)C1CCCCC1 [Compound 521]
  % Inhibition (FS) 0.3 μM: <30%
  % Inhibition (FS) 1 μM: <30%
  % Inhibition (FS) 3 μM: <30%

## NC1=Nc2ccc(Oc3ccccc3)cc2CN1C1CCN(C(=O)C2CCCCC2)CC1 [Compound 522]
  inhibition at 0.3 µM: < 30%
  inhibition at 1 µM: < 30%
  inhibition at 3 µM: 79%

## CCCC(CCC)C(=O)N1CCC(N2Cc3cc(Oc4ccccc4)ccc3N=C2N)CC1 [Compound 523]
  % Inhibition (FS) 0.3 μM: <30%
  % Inhibition (FS) 1 μM: <30%
  % Inhibition (FS) 3 μM: 58%

## NC1=Nc2ccc(Oc3ccccc3)cc2CN1C1CCN(C(=O)C23CC4CC(CC(C4)C2)C3)CC1 [Compound 524]
  % Inhibition (FS) 0.3 μM: <30%
  % Inhibition (FS) 1 μM: <30%
  % Inhibition (FS) 3 μM: 44%

## NC1=Nc2ccc(Oc3ccccc3)cc2CN1CC1CCN(C(=O)C2CCCCC2)CC1 [Compound 525]
  % Inhibition (FS) 0.3 μM: <30%
  % Inhibition (FS) 1 μM: <30%
  % Inhibition (FS) 3 μM: 70%

## CCCC(CCC)C(=O)N1CCC(CN2Cc3cc(Oc4ccccc4)ccc3N=C2N)CC1 [Compound 526]
  % Inhibition (FS) 0.3 μM: <30%
  % Inhibition (FS) 1 μM: 36%
  % Inhibition (FS) 3 μM: 98%

## NC1=Nc2ccc(Oc3ccccc3)cc2CN1CC1CCN(C(=O)C23CC4CC(CC(C4)C2)C3)CC1 [Compound 527]
  % Inhibition (FS) 0.3 μM: <30%
  % Inhibition (FS) 1 μM: <30%
  % Inhibition (FS) 3 μM: 51%

## CC(C)[C@@H](CNC(=O)C1CCCCC1)N1Cc2cc(Oc3ccccc3)ccc2N=C1N [Compound 528]
  % Inhibition (FS) 0.3 μM: <30%
  % Inhibition (FS) 1 μM: <30%
  % Inhibition (FS) 3 μM: 41%

## NC1=Nc2ccc(Oc3c(F)cccc3F)cc2CN1CCC(=O)NC1C2CC3CC(C2)CC1C3 (stereo not drawn) [Compound 529]
  % Inhibition (FS) 0.3 μM: <30%
  % Inhibition (FS) 1 μM: <30%
  % Inhibition (FS) 3 μM: 66%

## CC1CCN(C(=O)CCCC(CCC(=O)N2CCC(C)CC2)N2Cc3cc(Oc4ccccc4)ccc3N=C2N)CC1 (stereo not drawn) [Compound 532]
  % Inhibition (FS) 0.3 μM: <30%
  % Inhibition (FS) 1 μM: <30%
  % Inhibition (FS) 3 μM: 68%

## CS(=O)(=O)Nc1ccccc1-c1ccc2c(c1)CN(CCNC(=O)C1CCCCC1)C(N)=N2 [Compound 539]
  % Inhibition (FS) 0.3 μM: <30%
  % Inhibition (FS) 1 μM: <30%
  % Inhibition (FS) 3 μM: <30%

## CSc1ccccc1-c1ccc2c(c1)CN(CCNC(=O)C1CCCCC1)C(N)=N2 [Compound 540]
  % Inhibition (FS) 0.3 μM: <30%
  % Inhibition (FS) 1 μM: 30%
  % Inhibition (FS) 3 μM: 84%

## CC(=O)Nc1ccccc1-c1ccc2c(c1)CN(CCNC(=O)C1CCCCC1)C(N)=N2 [Compound 541]
  % Inhibition (FS) 0.3 μM: <30%
  % Inhibition (FS) 1 μM: <30%
  % Inhibition (FS) 3 μM: <30%

## CC(C)(C)NS(=O)(=O)c1ccccc1-c1ccc2c(c1)CN(CCNC(=O)C1CCCCC1)C(N)=N2 [Compound 542]
  % Inhibition (FS) 0.3 μM: <30%
  % Inhibition (FS) 1 μM: <30%
  % Inhibition (FS) 3 μM: 73%

## NC(=O)c1ccccc1-c1ccc2c(c1)CN(CCNC(=O)C1CCCCC1)C(N)=N2 [Compound 543]
  % Inhibition (FS) 0.3 μM: <30%
  % Inhibition (FS) 1 μM: <30%
  % Inhibition (FS) 3 μM: <30%

## NC1=Nc2ccc(-c3ccccc3-c3ccccc3)cc2CN1CCNC(=O)C1CCCCC1 [Compound 544]
  % Inhibition (FS) 0.3 μM: 32%
  % Inhibition (FS) 1 μM: <30%
  % Inhibition (FS) 3 μM: 51%

## CN(C(=O)c1cccc(CN2Cc3cc([S+]([O-])c4ccccc4)ccc3N=C2N)c1)C1CCCCC1 (stereo not drawn) [Compound 549]
  % Inhibition (FS) 0.3 μM: <30%
  % Inhibition (FS) 1 μM: 30%
  % Inhibition (FS) 3 μM: 71%

## NC1=Nc2ccc(Oc3ccccc3)cc2CN1C1CCCCN(C(=O)C23CC4CC(CC(C4)C2)C3)C1 (stereo not drawn) [Compound 550]
  % Inhibition (FS) 0.3 μM: <30%
  % Inhibition (FS) 1 μM: <30%
  % Inhibition (FS) 3 μM: 67%

## NC1=Nc2ccc(Oc3ccccc3)cc2CN1C1CCCCN(C(=O)C2CCCCC2)C1 (stereo not drawn) [Compound 551]
  % Inhibition (FS) 0.3 μM: <30%
  % Inhibition (FS) 1 μM: <30%
  % Inhibition (FS) 3 μM: <30%

## CCCC(CCC)C(=O)N1CCCCC(N2Cc3cc(Oc4ccccc4)ccc3N=C2N)C1 (stereo not drawn) [Compound 552]
  % Inhibition (FS) 0.3 μM: <30%
  % Inhibition (FS) 1 μM: <30%
  % Inhibition (FS) 3 μM: 36%

## CC(C)[C@@H](CNC(=O)C12CC3CC(CC(C3)C1)C2)N1Cc2cc(Oc3ccccc3)ccc2N=C1N [Compound 553]
  % Inhibition (FS) 0.3 μM: <30%
  % Inhibition (FS) 1 μM: <30%
  % Inhibition (FS) 3 μM: 49%

## CCCC(CNC(=O)C1CCCCC1)N1Cc2cc(Oc3ccccc3)ccc2N=C1N (stereo not drawn) [Compound 554]
0.3 µM
  % Inhibition (FS) 0.3 μM: <30%
1 µM
  % Inhibition (FS) 1 μM: <30%
3 µM
  % Inhibition (FS) 3 μM: 42%

## CCCC(CNC(=O)C12CC3CC(CC(C3)C1)C2)N1Cc2cc(Oc3ccccc3)ccc2N=C1N (stereo not drawn) [Compound 555]
0.3 µM
  % Inhibition (FS) 0.3 μM: <30%
1 µM
  % Inhibition (FS) 1 μM: <30%
3 µM
  % Inhibition (FS) 3 μM: 46%

## CN(C(=O)CCC(CO)N1Cc2cc(Oc3ccccc3)ccc2N=C1N)C1CCCCC1 (stereo not drawn) [Compound 557]
  % Inhibition (FS) 0.3 μM: <30%
  % Inhibition (FS) 1 μM: <30%
  % Inhibition (FS) 3 μM: <30%

## CN(C(=O)c1ncoc1C(Cc1ccccc1)N1Cc2cc(Oc3ccccc3)ccc2N=C1N)C1CCCCC1 (stereo not drawn) [Compound 559]
  % Inhibition (FS) 0.3 μM: <30%
  % Inhibition (FS) 1 μM: <30%
  % Inhibition (FS) 3 μM: <30%

## CC(C)C(CNC(=O)C12CC3CC(CC(C3)C1)C2)N1Cc2cc(Oc3ccccc3)ccc2N=C1N (stereo not drawn) [Compound 562]
  % Inhibition (FS) 0.3 μM: 106%
  % Inhibition (FS) 1 μM: 118%
  % Inhibition (FS) 3 μM: 128%

## N#Cc1cccc(C(=O)NCCN2Cc3cc(-c4cncnc4)ccc3N=C2N)c1 [Compound 567]
  % Inhibition (FS) 0.3 μM: <30%
  % Inhibition (FS) 1 μM: <30%
  % Inhibition (FS) 3 μM: <30%

## CCCC=Cc1ccc2c(c1)CN(CCNC(=O)c1cccc(C#N)c1)C(N)=N2 [Compound 568]
  % Inhibition (FS) 0.3 μM: <30%
  % Inhibition (FS) 1 μM: <30%
  % Inhibition (FS) 3 μM: <30%

## CCCC(=O)NCCN1Cc2cc(-c3cncnc3)ccc2N=C1N [Compound 569]
  % Inhibition (FS) 0.3 μM: <30%
  % Inhibition (FS) 1 μM: <30%
  % Inhibition (FS) 3 μM: <30%

## CCCC(=O)NCCN1Cc2cc(-c3ccncc3)ccc2N=C1N [Compound 570]
  % Inhibition (FS) 0.3 μM: <30%
  % Inhibition (FS) 1 μM: <30%
  % Inhibition (FS) 3 μM: <30%

## CCCC=Cc1ccc2c(c1)CN(CCNC(=O)CCC)C(N)=N2 [Compound 571]
  % Inhibition (FS) 0.3 μM: <30%
  % Inhibition (FS) 1 μM: <30%
  % Inhibition (FS) 3 μM: <30%

## CC(C)(C)C(=O)NCCN1Cc2cc(-c3ccncc3)ccc2N=C1N [Compound 573]
  % Inhibition (FS) 0.3 μM: <30%
  % Inhibition (FS) 1 μM: <30%
  % Inhibition (FS) 3 μM: <30%

## CCCC=Cc1ccc2c(c1)CN(CCNC(=O)C(C)(C)C)C(N)=N2 [Compound 574]
  % Inhibition (FS) 0.3 μM: <30%
  % Inhibition (FS) 1 μM: <30%
  % Inhibition (FS) 3 μM: <30%

## NC1=Nc2ccc(-c3cncnc3)cc2CN1CCNC(=O)C1CCCCC1 [Compound 575]
  % Inhibition (FS) 0.3 μM: <30%
  % Inhibition (FS) 1 μM: <30%
  % Inhibition (FS) 3 μM: <30%

## NC1=Nc2ccc(-c3ccncc3)cc2CN1CCNC(=O)C1CCCCC1 [Compound 576]
  % Inhibition (FS) 0.3 μM: <30%
  % Inhibition (FS) 1 μM: <30%
  % Inhibition (FS) 3 μM: <30%

## CCCC=Cc1ccc2c(c1)CN(CCNC(=O)C1CCCCC1)C(N)=N2 [Compound 577]
  % Inhibition (FS) 0.3 μM: <30%
  % Inhibition (FS) 1 μM: <30%
  % Inhibition (FS) 3 μM: <30%

## CCCC=Cc1ccc2c(c1)CN(CCNC(=O)CC1CCCC1)C(N)=N2 [Compound 580]
  % Inhibition (FS) 0.3 μM: <30%
  % Inhibition (FS) 1 μM: <30%
  % Inhibition (FS) 3 μM: <30%

## CC(=O)c1cccc(-c2ccc3c(c2)CN(CCNC(=O)CC2CCCC2)C(N)=N3)c1 [Compound 582]
  % Inhibition (FS) 0.3 μM: <30%
  % Inhibition (FS) 1 μM: <30%
  % Inhibition (FS) 3 μM: <30%

## NC1=Nc2ccc(-c3cccc(C(F)(F)F)c3)cc2CN1CCNC(=O)CC1CCCC1 [Compound 584]
  % Inhibition (FS) 0.3 μM: <30%
  % Inhibition (FS) 1 μM: <30%
  % Inhibition (FS) 3 μM: 56%

## Cc1cc(C(=O)NCCN2Cc3cc(-c4ccccc4)ccc3N=C2N)c(C)o1 [Compound 586]
  % Inhibition (FS) 0.3 μM: <30%
  % Inhibition (FS) 1 μM: <30%
  % Inhibition (FS) 3 μM: 59%
